Results reported in patent publication US20250042879A1, “HETEROCYCLIC SUBSTITUTED 1,3,4-THIADIAZOLE AND PYRIDAZINE COMPOUNDS AND METHODS OF USING THE SAME” (Rgenta Therapeutics, Inc., priority 2021, published 2025).
Counter-ions that a name gives are not always drawn.

Each compound was assayed on HTT (assay: Mini-gene reporter assay-HTT (firefly luciferase, exon inclusion)). Details: Homo sapiens; HTT mini-gene firefly luciferase reporter transiently transfected into HEK293 cells.
Type: cell-based
From the text: Mini-gene reporter constructs for each target site were constructed by first PCR amplifying the region-of-interest including the sequence of the alternatively skipped, sequences of the immediate upstream and downstream introns, and sequences of the immediate upstream and downstream exons. Then the 3′end of the amplified sequence was ligated to a firefly luciferase reporter gene and cloned into the pcDNA3.1 vector backbone. The final reporter construct was transiently transfected into HEK293 cells using Lipofectamine 3000 transfection reagents. Compounds that can induce the inclusion of the skipped exon in the reporter construct would increase the reporter firefly luciferase activity.
Test compounds were diluted in duplicates and dispensed into an assay plate. Transient mini-gene reporter cell line stock was resuspended and dispensed into the assay plate. Assay plates were then centrifuged and incubated. A luciferase reagent (e.g. ONE-Glo firefly luciferase reagent from Promega®) was added to the assay plate and the luminescence (RLU) signals recorded. EC50 values were determined by curve fitting in Levenberg-Marquardt algorithm.

EC50 [nM]	Structure (SMILES)
50 to 500	Cc1cn2cc(-c3ccc(-c4ccc(C5CNC5)nn4)c(O)c3)cc(F)c2n1 [Compound 1, 2-(6-(azetidin-3-yl)pyridazin-3-yl)-5-(8-fluoro-2-methylimidazo[1,2-a]pyridin-6-yl)phenol]
50 to 500	Cc1cn2cc(-c3ccc(-c4ccc(C5CNC5)nn4)c(O)c3)ccc2n1 [Compound 2, 2-(6-(azetidin-3-yl)pyridazin-3-yl)-5-(2-methylimidazo[1,2-a]pyridin-6-yl)phenol]
500 to 1000	Cc1cc(-c2ccc(-c3ccc(C4CNC4)nn3)c(O)c2)cc2cn(C)nc12 [Compound 6, 2-(6-(azetidin-3-yl)pyridazin-3-yl)-5-(2,7-dimethyl-2H-indazol-5-yl)phenol hydrochloride]
≥ 1000	Cc1cn2cc(-c3cc(O)c(-c4ccc(C5CNC5)nn4)cc3F)cc(F)c2n1 [Compound 8, 2-[6-(azetidin-3-yl)pyridazin-3-yl]-4-fluoro-5-{8-fluoro-2-methylimidazo[1,2-a]pyridin-6-yl}phenol]
50 to 500	Cc1cn2cc(-c3ccc(-c4ccc(C5CNC5)nn4)c(O)c3)nc(C)c2n1 [Compound 9, 2-[6-(azetidin-3-yl)pyridazin-3-yl]-5-{2,8-dimethylimidazo[1,2-a]pyrazin-6-yl}phenol]
< 50	Cc1cn2cc(-c3ccc(-c4ccc(C5CNC5)nn4)c(O)c3F)cc(F)c2n1 [Compound 10, 6-[6-(azetidin-3-yl)pyridazin-3-yl]-2-fluoro-3-{8-fluoro-2-methylimidazo[1,2-a]pyridin-6-yl}phenol]
500 to 1000	Cc1cn2cc(-c3cc(O)c(-c4ccc(C5CNC5)nn4)c(F)c3)cc(F)c2n1 [Compound 11, 2-[6-(azetidin-3-yl)pyridazin-3-yl]-3-fluoro-5-{8-fluoro-2-methylimidazo[1,2-a]pyridin-6-yl}phenol]
≥ 1000	Cc1cc2cc(-c3ccc(-c4ccc(C5CNC5)nn4)c(O)c3)ccn2n1 [Compound 13, 2-[6-(azetidin-3-yl)pyridazin-3-yl]-5-{2-methylpyrazolo[1,5-a]pyridin-5-yl}phenol]
500 to 1000	Cc1cn2cc(-c3ccc(-c4ccc(C5CN(C)C5)nn4)c(O)c3)ccc2n1 [Compound 14, 2-[6-(1-methylazetidin-3-yl)pyridazin-3-yl]-5-{2-methylimidazo[1,2-a]pyridin-6-yl}phenol]
50 to 500	Cn1cc2cc(-c3ccc(-c4ccc(C5CNC5)nn4)c(O)c3)ccc2n1 [Compound 16, 2-[6-(azetidin-3-yl)pyridazin-3-yl]-5-(2-methyl-2H-indazol-5-yl)phenol]
50 to 500	CCN1CC(c2ccc(-c3ccc(-c4cc(F)c5nc(C)cn5c4)cc3O)nn2)C1 [Compound 17, 2-[6-(1-ethylazetidin-3-yl)pyridazin-3-yl]-5-{8-fluoro-2-methylimidazo[1,2-a]pyridin-6-yl}phenol]
500 to 1000	Cc1cn2cc(-c3ccc(-c4ccc(C5CN(C6CCOCC6)C5)nn4)c(O)c3)cc(F)c2n1 [Compound 18, 5-{8-fluoro-2-methylimidazo[1,2-a]pyridin-6-yl}-2-{6-[1-(oxan-4-yl)azetidin-3-yl]pyridazin-3-yl}phenol]
≥ 1000	CN1CC(c2ccc(-c3ccc(-c4ccc5nn(C)cc5c4)cc3O)nn2)C1 [Compound 19, 5-(2-methyl-2H-indazol-5-yl)-2-[6-(1-methylazetidin-3-yl)pyridazin-3-yl]phenol]
500 to 1000	Cc1cn2cc(-c3ccc(-c4ccc(C5CN(C)C5)nn4)c(O)c3)nc(C)c2n1 [Compound 20, 5-{2,8-dimethylimidazo[1,2-a]pyrazin-6-yl}-2-[6-(1-methylazetidin-3-yl)pyridazin-3-yl]phenol]
≥ 1000	Cc1cc2cc(-c3ccc(-c4ccc(C5CN(C)C5)nn4)c(O)c3)ccn2n1 [Compound 21, 2-[6-(1-methylazetidin-3-yl)pyridazin-3-yl]-5-{2-methylpyrazolo[1,5-a]pyridin-5-yl}phenol]
50 to 500	CCN1CC(c2ccc(-c3ccc(-c4ccc5nn(C)cc5c4)cc3O)nn2)C1 [Compound 24, 2-[6-(1-ethylazetidin-3-yl)pyridazin-3-yl]-5-(2-methyl-2H-indazol-5-yl)phenol]
≥ 1000	CCN1CC(c2ccc(-c3ccc(-c4ccn5nc(C)cc5c4)cc3O)nn2)C1 [Compound 25, 2-[6-(1-ethylazetidin-3-yl)pyridazin-3-yl]-5-{2-methylpyrazolo[1,5-a]pyridin-5-yl}phenol]

EC50 [nM]	Structure (SMILES)
50 to 500	Cc1cc(-c2ccc(-c3ccc(C4CN(C)C4)nn3)c(O)c2)cc2cn(C)nc12 [Compound 27, 5-(2,7-dimethyl-2H-indazol-5-yl)-2-[6-(1-methylazetidin-3-yl)pyridazin-3-yl]phenol]
500 to 1000	Cc1cc2cc(-c3ccc(-c4ccc(C5CNC5)nn4)c(O)c3)cc(C)n2n1 [Compound 29, 2-[6-(azetidin-3-yl)pyridazin-3-yl]-5-{2,7-dimethylpyrazolo[1,5-a]pyridin-5-yl}phenol]
≥ 1000	Cc1cn2nc(-c3ccc(-c4ccc(C5CN(C)C5)nn4)c(O)c3)cc(C)c2n1 [Compound 30, 5-{2,8-dimethylimidazo[1,2-b]pyridazin-6-yl}-2-[6-(1-methylazetidin-3-yl)pyridazin-3-yl]phenol]
500 to 1000	Cc1cn2nc(-c3ccc(-c4ccc(C5CNC5)nn4)c(O)c3)ccc2n1 [Compound 31, 2-[6-(azetidin-3-yl)pyridazin-3-yl]-5-{2-methylimidazo[1,2-b]pyridazin-6-yl}phenol]
≥ 1000	CCN1CC(c2ccc(-c3ccc(-c4cn5cc(C)nc5c(C)n4)cc3O)nn2)C1 [Compound 32, 5-{2,8-dimethylimidazo[1,2-a]pyrazin-6-yl}-2-[6-(1-ethylazetidin-3-yl)pyridazin-3-yl]phenol]
500 to 1000	Cc1cn2cc(-c3ccc(-c4ccc(C5CNC5)nn4)c(O)c3)ncc2n1 [Compound 33, 2-[6-(azetidin-3-yl)pyridazin-3-yl]-5-{2-methylimidazo[1,2-a]pyrazin-6-yl}phenol]
50 to 500	CCN1CC(c2ccc(-c3ccc(-c4cc(C)c5nn(C)cc5c4)cc3O)nn2)C1 [Compound 34, 5-(2,7-dimethyl-2H-indazol-5-yl)-2-[6-(1-ethylazetidin-3-yl)pyridazin-3-yl]phenol]
500 to 1000	Cc1cn2cc(-c3ccc(-c4ccc(C5CN(C)C5)nn4)c(O)c3)cc(C)c2n1 [Compound 35, 5-{2,8-dimethylimidazo[1,2-a]pyridin-6-yl}-2-[6-(1-methylazetidin-3-yl)pyridazin-3-yl]phenol]
50 to 500	Cc1cn2nc(-c3ccc(-c4ccc(C5CN(C)C5)nn4)c(O)c3)ccc2n1 [Compound 37, 2-[6-(1-methylazetidin-3-yl)pyridazin-3-yl]-5-{2-methylimidazo[1,2-b]pyridazin-6-yl}phenol]
50 to 500	Cc1cn2cc(-c3ccc(-c4ccc(C5CN(C)C5)nn4)c(O)c3)ncc2n1 [Compound 39, 2-[6-(1-methylazetidin-3-yl)pyridazin-3-yl]-5-{2-methylimidazo[1,2-a]pyrazin-6-yl}phenol]
500 to 1000	Cc1cc2cc(-c3ccc(-c4ccc(C5CN(C)C5)nn4)c(O)c3)cc(C)n2n1 [Compound 40, 5-{2,7-dimethylpyrazolo[1,5-a]pyridin-5-yl}-2-[6-(1-methylazetidin-3-yl)pyridazin-3-yl]phenol]
≥ 1000	CCN1CC(c2ccc(-c3ccc(-c4cc(C)n5nc(C)cc5c4)cc3O)nn2)C1 [Compound 41, 5-{2,7-dimethylpyrazolo[1,5-a]pyridin-5-yl}-2-[6-(1-ethylazetidin-3-yl)pyridazin-3-yl]phenol]
≥ 1000	CCN1CC(c2ccc(-c3ccc(-c4cc(C)c5nc(C)cn5n4)cc3O)nn2)C1 [Compound 42, 5-{2,8-dimethylimidazo[1,2-b]pyridazin-6-yl}-2-[6-(1-ethylazetidin-3-yl)pyridazin-3-yl]phenol]
500 to 1000	CCN1CC(c2ccc(-c3ccc(-c4cn5cc(C)nc5cn4)cc3O)nn2)C1 [Compound 43, 2-[6-(1-ethylazetidin-3-yl)pyridazin-3-yl]-5-{2-methylimidazo[1,2-a]pyrazin-6-yl}phenol]
500 to 1000	Cn1cc2cc(-c3ccc(-c4ccc(C5CNC5)nn4)c(O)c3)ncc2n1 [Compound 44, 2-(6-(azetidin-3-yl)pyridazin-3-yl)-5-(2-methyl-2H-pyrazolo[3,4-c]pyridin-5-yl)phenol hydrochloride]
500 to 1000	Cn1cc2cc(-c3ccc(-c4ccc(C5CN(C6CCOC6)C5)nn4)c(O)c3)ccc2n1 (stereo not shown) [Compound 45, 5-(2-methyl-2H-indazol-5-yl)-2-{6-[1-(oxolan-3-yl)azetidin-3-yl]pyridazin-3-yl}phenol]
500 to 1000	CCN1CC(c2ccc(-c3ccc(-c4cc5cn(C)nc5cn4)cc3O)nn2)C1 [Compound 46, 2-[6-(1-ethylazetidin-3-yl)pyridazin-3-yl]-5-{2-methyl-2H-pyrazolo[3,4-c]pyridin-5-yl}phenol]

Structure (SMILES)	EC50 [nM]
Cc1cn2nc(-c3ccc(-c4ccc(C5CNC5)nn4)c(O)c3)cc(C)c2n1 [Compound 3, 2-[6-(azetidin-3-yl)pyridazin-3-yl]-5-{2,8-dimethylimidazo[1,2-b]pyridazin-6-yl}phenol]	50 to 500
Cc1cn2cc(-c3ccc(-c4ccc(C5CNC5)nn4)c(O)c3)cc(C)c2n1 [Compound 4, 2-(6-(azetidin-3-yl)pyridazin-3-yl)-5-(2,8-dimethylimidazo[1,2-a]pyridin-6-yl)phenol hydrochloride]	≥ 1000
Cc1cn2cc(-c3ccc(-c4ccc(C5CNC5)nn4)c(O)c3)cc(C(F)(F)F)c2n1 [Compound 5, 2-[6-(azetidin-3-yl)pyridazin-3-yl]-5-[2-methyl-8-(trifluoromethyl)imidazo[1,2-a]pyridin-6-yl]phenol]	50 to 500
